A short description of the data set: Pharmacokinetic profile of Lipid A in liver and plasma (LC/MS). The format is in vivo, mouse. The following applies: mice, after LNP administration. Here is the method: Three different guide sequences were separately formulated, according to Example 1, and injected into mice (n=3) to determine the pharmacokinetic profile of Lipid A. Levels of Lipid A in mouse liver and plasma were measured by LC/MS. […] Tmax in liver was achieved within 30 minutes of administration, whereas T112 in plasma and liver were achieved within approximately 5-6 hours of LNP administration.

Some results are limits rather than exact numbers.

In general, Tmax refers to the time at which the peak concentration occurs. Consider `CCCCC/C=C\C/C=C\CCCCCCCC(=O)OCC(COC(=O)CCC(OCCCCCCCC)OCCCCCCCC)COC(=O)OCCCN(CC)CC` (stereo not drawn) [Lipid A, (9Z,12Z)-3-((4,4-bis(octyloxy)butanoyl)oxy)-2-((((3-(diethylamino)propoxy)carbonyl)oxy)methyl)propyl octadeca-9,12-dienoate], for which the T112 in liver was 5 to 6 h and the T112 in plasma lay within 5 to 6 h. The time to peak (Tmax) (CD-1, mouse, liver, intravenous) was no more than 30 min.
